# Reference: patent US4882447A, “Novel organic platinum complex and process for the preparation thereof” (priority 1987, dated 1989)
# Assays:
# Sarcoma cells = assay: Chemotherapeutic effect on subcutaneously inoculated sarcoma cells in ICR mice (tumor weight, i.p. once a day for 5 days); type: in vivo, female ICR mice; conditions: for Inhibition rate / Inhibition rate (%) (entry: toxic): once a day for 5 days; for Inhibition rate: tumor weight 5 days after the administration; for Inhibition rate (%) (entry: toxic): 100 mg/kg/day i.p., group of five female ICR mice; for ED30: denominator of MTD/ED30; for ED30 / MTD: doses of the table in mg/kg/day; for ED30 / MTD / Therapeutic index (MTD/ED30): i.p. once a day for 5 days; for MTD: numerator of MTD/ED30; for Therapeutic index (MTD/ED30): ratio MTD/ED30
# Procedure: Chemotherapeutic effect of the organic platinum complex (I) of this invention was investigated as follows.
# Sarcoma cells (1.5×10^6 cells) were inoculated subcutaneously at inguinal region of a group of five female mice (ICR mice, five week age). Twenty four hours after the inoculation, a solution of test compound was intraperitoneally administered to the mice once a day for 5 days. The weight of tumor in the mice was measured 5 days after the administration.
# [1] = Renal function indices (creatinine and urea in blood) in mice; type: in vivo; conditions: dose required to induce 100% increase in the life span
# Text: The organic platinum complex of the invention also has advantageous properties such as less toxicity to kidney, remarkedly higher water solubility and is easily transferred into organs in vivo in comparison with known organic platinum complexes.
SMILES,Inhibition rate (Sarcoma cells; 3.12 mg/kg/day i.p.) [%],Inhibition rate (Sarcoma cells; 6.25 mg/kg/day i.p.) [%],Inhibition rate (Sarcoma cells; 12.5 mg/kg/day i.p.) [%],Inhibition rate (Sarcoma cells; 25 mg/kg/day i.p.) [%],Inhibition rate (Sarcoma cells; 50 mg/kg/day i.p.) [%],Inhibition rate (%) (entry: toxic) (Sarcoma cells),ED30 (Sarcoma cells),MTD (Sarcoma cells),influence on indices of renal functions such as the concentration of creatinine and ueas in blood [1],Therapeutic index (MTD/ED30) (Sarcoma cells)
"CC(=O)NC1C(=O)[O][Pt]2([NH]C3CCCCC3[NH]2)[O]C1=O (stereo not drawn) [Compound 1, [2-(acetylamino)malonato](trans-l-1,2-diaminocyclohexane)platinum (II)]",28.4,36.0,52.3,64.8,89.4,Toxic (5/5),3.6,50,no influences,
"COCCOCC(=O)NC1C(=O)[O][Pt-2]2([NH2+]C3CCCCC3[NH2+]2)[O]C1=O (stereo not drawn) [Compound 2, [2-[[(methoxyethoxy)acetyl]amino]malonato] (trans-l-1,2-diaminocyclohexane)platinum (II)]",,17.8,57.6,65.4,80.2,Toxic (4/5),6.7,50,,7.5
"CC(=O)NC1(C)C(=O)[O][Pt-2]2([NH2+]C3CCCCC3[NH2+]2)[O]C1=O (stereo not drawn) [Compound 3, [2-(acetylamino)-2-methylmalonato] (trans-l-1,2-diaminocyclohexane) platinum (II)]",,26.4,49.7,63.5,80.7,Toxic (5/5),7.0,50,,7.1
